In ChEMBL document CHEMBL2073808, “P-glycoprotein inhibition by the multidrug resistance-reversing agent MS-209 enhances bioavailability and antitumor efficacy of orally administered paclitaxel” (Cancer Chemother Pharmacol, 2002):
pKi: −log10 of the molar value.

Target: ATP-dependent translocase ABCB1 (Homo sapiens, UniProt P08183)
Experiment: TP_TRANSPORTER: inhibition of Taxol transepithelial transport (basal to apical) in Caco-2 cells
Format: functional, cell-based

Sequence of ATP-dependent translocase ABCB1 (P08183 whole entry): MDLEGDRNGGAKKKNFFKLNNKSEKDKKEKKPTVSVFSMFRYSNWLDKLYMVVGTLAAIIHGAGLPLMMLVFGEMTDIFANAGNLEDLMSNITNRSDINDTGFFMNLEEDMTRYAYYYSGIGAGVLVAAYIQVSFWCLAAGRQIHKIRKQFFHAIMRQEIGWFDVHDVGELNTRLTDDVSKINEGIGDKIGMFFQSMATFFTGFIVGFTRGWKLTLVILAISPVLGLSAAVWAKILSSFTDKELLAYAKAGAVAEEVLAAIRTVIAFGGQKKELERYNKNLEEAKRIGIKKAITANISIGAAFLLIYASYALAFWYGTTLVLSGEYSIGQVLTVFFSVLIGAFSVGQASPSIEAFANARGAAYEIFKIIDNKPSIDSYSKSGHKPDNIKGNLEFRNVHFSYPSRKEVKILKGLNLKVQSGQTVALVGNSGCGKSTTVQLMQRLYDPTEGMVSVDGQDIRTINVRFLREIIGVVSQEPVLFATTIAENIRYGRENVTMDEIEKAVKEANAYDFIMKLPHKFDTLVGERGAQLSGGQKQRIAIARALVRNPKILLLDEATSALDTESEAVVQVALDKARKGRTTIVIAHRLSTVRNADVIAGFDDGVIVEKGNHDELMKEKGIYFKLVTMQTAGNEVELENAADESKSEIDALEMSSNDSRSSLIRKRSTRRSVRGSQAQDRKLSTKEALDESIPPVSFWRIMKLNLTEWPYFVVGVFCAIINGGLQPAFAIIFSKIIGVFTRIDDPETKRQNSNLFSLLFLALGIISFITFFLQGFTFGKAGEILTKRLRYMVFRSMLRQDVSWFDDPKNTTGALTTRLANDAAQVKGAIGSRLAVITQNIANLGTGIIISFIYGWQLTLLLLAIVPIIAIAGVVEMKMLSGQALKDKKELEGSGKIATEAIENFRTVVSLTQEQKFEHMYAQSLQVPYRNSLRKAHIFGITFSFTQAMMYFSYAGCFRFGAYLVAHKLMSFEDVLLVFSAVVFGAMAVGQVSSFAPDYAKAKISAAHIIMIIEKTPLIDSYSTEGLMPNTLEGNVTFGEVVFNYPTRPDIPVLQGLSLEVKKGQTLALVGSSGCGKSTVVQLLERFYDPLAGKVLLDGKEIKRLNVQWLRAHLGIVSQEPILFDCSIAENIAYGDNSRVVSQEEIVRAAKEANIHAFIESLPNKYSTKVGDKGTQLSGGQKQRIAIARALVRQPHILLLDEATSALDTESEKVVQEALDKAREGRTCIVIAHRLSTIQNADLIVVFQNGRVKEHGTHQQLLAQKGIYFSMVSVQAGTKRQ

In the case of `O=C(C(c1ccccc1)c1ccccc1)N1CCN(C[C@@H](O)COc2cccc3ncccc23)CC1`, the pKi was 6.40.
